Data as given in PMC6277767, “Broad and Region-Specific Impacts of the Synthetic Cannabinoid CP 55,940 in Adolescent and Adult Female Mouse Brains” (Frontiers in Molecular Neuroscience, 2018).

System: CD1 female mouse brain lipidome
Test: Brain-region lipid levels (HPLC/MS/MS lipidomics) 2 h after single i.p. 3 mg/kg CP 55,940 vs vehicle
Assay type: in vivo
Design: N-arachidonoyl phenylalanine level, Mean / N-stearoyl tryptophan level, Mean / N-stearoyl proline level, Mean / N-stearoyl leucine level, Mean / N-stearoyl phenylalanine level, Mean / N-stearoyl serine level, Mean / N-stearoyl methionine level, Mean: unit: moles per gram
Procedure: The Bloomington Institutional Animal Care and Use Committee of Indiana University reviewed and approved the animal procedures. Female mice from the CD1 strain were utilized to match our study examining THC’s effects on the brain lipidome ([Leishman et al., 2018]). Mice were given a single i.p. injection of either 3 mg/kg CP or 1:1:18 cremophor:ethanol:saline vehicle (please refer to the section “3 mg/kg CP Is Relevant for Synthetic Cannabinoid Abuse and Has Stronger Effects on the Female Mouse Brain Lipidome During Adolescence” for a justification of dose and use of female mice). Three different age groups were given injections: PND 35 and PND 50 adolescents, and adult mice (PND 113). At least eight mice in each age group received CP and at least eight received vehicle. Matching the THC study time course ([Leishman et al., 2018]), mice were sacrificed via rapid decapitation 2 h after injection. Brains were immediately removed and flash-frozen in liquid nitrogen, and then stored at -80°C until dissections were performed. Brains were dissected on an ice-cold dissection plate into the following regions: STR, HIPP, CER, THAL, CTX, HYP, MID, and STEM. These abbreviations for these brain areas will be used exclusively when discussing the results generated by these specific dissections. Each dissected area was immediately placed in liquid nitrogen and then stored at -80°C until used for lipid extraction.
Tissue extracts were performed as previously described ([Bradshaw et al., 2006]; [Stuart et al., 2013]; [Raboune et al., 2014]; [Leishman et al., 2016a],[b], [2017], [2018]). First, samples were shock frozen in liquid nitrogen, weighed, and transferred to a centrifuge tube. The mass of the largest sample was multiplied by 50 to determine how many milliliters of HPLC-grade methanol (Fisher, Fair Lawn, NJ, United States) to add. Then, samples were spiked with 500 pmol deuterium-labeled NAGly (d8NAGly; Cayman Chemical, Ann Arbor, MI, United States). Samples were placed on ice in darkness for 2 h then individually homogenized and centrifuged at 19,000 × g for 20 min at 20°C. Supernatants were diluted with HPLC water (purified in house) to make a solution of 75% water, 25% supernatant. Lipids were partially purified on C18 solid phase extraction columns (Agilent, Palo Alto, CA, United States). A series of four elutions with 1.5 mL of 60%, 75%, 85%, and 100% methanol were collected ([Stuart et al., 2013]; [Leishman et al., 2016a],[b], [2018]).
As previously described ([Bradshaw et al., 2006]; [Tan et al., 2006]; [Smoum et al., 2010]; [Stuart et al., 2013]; [Tortoriello et al., 2013]; [Raboune et al., 2014]; [Leishman et al., 2016a],[b], [2017], [2018]), samples were analyzed using an Applied Biosystems API 3000 triple quadrupole mass spectrometer with electrospray ionization (Foster City, CA, United States). Using an Agilent XDB-C18 reversed phase analytical column and optimized mobile phase gradients, 20 μL from each elution were chromatographed. Two Shimadzu 10ADvp pumps (Columbia, MD, United States) provided the pressure for gradient elution. Mobile phase A: 20% methanol, 80% water (v/v) and 1 mM ammonium acetate (Sigma, St. Louis, MO, United States). Mobile phase B: 100% methanol, 1 mM ammonium acetate. Every method run began with 0% mobile phase B, reached 100% mobile phase B flowing at 0.2 mL/min, and gradually returned to 0% mobile phase B.
This screening library will be referred to as the lipidome when discussing data from this study. HPLC/MS/MS data were analyzed using Analyst software (Applied Biosystems) ([Bradshaw et al., 2006]; [Tan et al., 2006]; [Stuart et al., 2013]; [Tortoriello et al., 2013]; [Raboune et al., 2014]; [Leishman et al., 2016a],[b], [2017], [2018]). Chromatograms (Supplementary Figure 3) were generated by determining the retention time of analytes from the analytical column with a [M-1] or [M+1] parent peak and a fragmentation peak corresponding to the programmed values. […]

[1] = brainstem, PND 50, 3 mg/kg CP 55,940, one-way ANOVA p .062
[2] = brainstem, PND35 WT female mice, 3 mg/kg
[3] = cerebellum, PND 50, 3 mg/kg CP 55,940
[4] = cerebellum, PND 50 female mice, 3 mg/kg CP 55,940

CCCCCCC(C)(C)c1ccc([C@@H]2C[C@H](O)CC[C@H]2CCCO)c(O)c1 [CP 55,940]
2-oleoyl glycerol, Magnitude (x Veh level) (brainstem, PND 50, 3 mg/kg CP 55,940, one-way ANOVA p .046): 0.86 x Veh level | 2-palmitoyl glycerol, Direction (relative to Veh) [1]: ↓ | 2-palmitoyl glycerol, Magnitude (x Veh level) [1]: 0.71 x Veh level | N-arachidonoyl GABA level, Mean [2]: 8.01E-12 | N-arachidonoyl alanine level, Mean [2]: 6.76E-12 | N-arachidonoyl ethanolamine level, Mean [2]: 2.09E-11 | N-arachidonoyl glycine level, Mean [2]: 4.63E-11 | N-arachidonoyl methionine level, Mean [2]: 8.72E-13 | N-arachidonoyl phenylalanine level, Mean [2]: 9.69E-13 | N-docosahexaenoyl GABA level, Mean [2]: 2.13E-12 | N-docosahexaenoyl alanine level, Mean [2]: 4.95E-12 | N-docosahexaenoyl ethanolamine level, Mean [2]: 4.42E-11 | N-docosahexaenoyl glycine level, Mean [2]: 2.18E-11 | N-docosahexaenoyl leucine level, Mean [2]: 5.85E-13 | N-docosahexaenoyl phenylalanine level, Mean [2]: 8.51E-13 | N-linoleoyl GABA level, Mean [2]: 8E-13 | N-linoleoyl alanine level, Mean [2]: 1.32E-12 | N-linoleoyl ethanolamine level, Mean [2]: 3.37E-11 | N-linoleoyl glycine level, Mean [2]: 5.99E-12 | N-linoleoyl leucine level, Mean [2]: 3.47E-13 | N-oleoyl GABA level, Mean [2]: 4.65E-12 | N-oleoyl alanine level, Mean [2]: 7.64E-12 | N-oleoyl ethanolamine level, Mean [2]: 2.04E-10 | N-oleoyl glycine level, Mean [2]: 2.66E-11 | N-oleoyl leucine level, Mean [2]: 1.35E-12 | N-oleoyl methionine level, Mean [2]: 1.16E-12 | N-oleoyl phenylalanine level, Mean [2]: 1.05E-12 | N-palmitoyl GABA level, Mean [2]: 7.63E-12 | N-palmitoyl alanine level, Mean [2]: 8.91E-12 | N-palmitoyl ethanolamine level, Mean [2]: 1.31E-10 | N-palmitoyl glycine level, Mean [2]: 4.17E-11 | N-palmitoyl leucine level, Mean [2]: 2.63E-12 | N-palmitoyl methionine level, Mean [2]: 1.43E-12 | N-palmitoyl phenylalanine level, Mean [2]: 2.02E-12 | N-stearoyl GABA level, Mean [2]: 6.98E-12 | N-stearoyl alanine level, Mean [2]: 1.31E-11 | N-stearoyl ethanolamine level, Mean [2]: 3.25E-11 | N-stearoyl glycine level, Mean [2]: 2.18E-11 | N-stearoyl leucine level, Mean [2]: 8.28E-13 | N-stearoyl methionine level, Mean [2]: 1.7E-12 | N-stearoyl phenylalanine level, Mean [2]: 1.48E-12 | 2-linoleoyl glycerol: Direction (relative to Veh) [3]: ↓ | 2-linoleoyl glycerol: Magnitude (x Veh level) [3]: 0.65 x Veh level | 2-oleoyl glycerol: Direction (relative to Veh) [3]: ↓ | 2-oleoyl glycerol: Magnitude (x Veh level) [3]: 0.77 x Veh level | 2-palmitoyl glycerol: Direction (relative to Veh) [3]: ↓ | 2-palmitoyl glycerol: Magnitude (x Veh level) [3]: 0.69 x Veh level | 6-ketoPGF1α: Direction (relative to Veh) [3]: ↑ | 6-ketoPGF1α: Magnitude (x Veh level) [3]: 1.33 x Veh level | Arachidonic acid: Direction (relative to Veh) [3]: ↓ | Arachidonic acid: Magnitude (x Veh level) [3]: 0.74 x Veh level | Linoleic acid: Direction (relative to Veh) [3]: ↓ | Linoleic acid: Magnitude (x Veh level) [3]: 0.73 x Veh level | N-arachidonoyl GABA: Direction (relative to Veh) [3]: ↓ | N-arachidonoyl GABA: Magnitude (x Veh level) [3]: 0.75 x Veh level | N-arachidonoyl ethanolamine: Direction (relative to Veh) [3]: ↓ | N-arachidonoyl ethanolamine: Magnitude (x Veh level) [3]: 0.81 x Veh level | N-arachidonoyl glycine: Direction (relative to Veh) [3]: ↓ | N-arachidonoyl glycine: Magnitude (x Veh level) [3]: 0.68 x Veh level | N-arachidonoyl phenylalanine: Direction (relative to Veh) [3]: ↓ | N-arachidonoyl phenylalanine: Magnitude (x Veh level) [3]: 0.60 x Veh level | N-arachidonoyl serine: Direction (relative to Veh) [3]: ↓ | N-arachidonoyl serine: Magnitude (x Veh level) [3]: 0.78 x Veh level | N-arachidonoyl taurine: Direction (relative to Veh) [3]: ↓ | N-arachidonoyl taurine: Magnitude (x Veh level) [3]: 0.83 x Veh level | N-arachidonoyl tyrosine: Direction (relative to Veh) [3]: ↓ | N-arachidonoyl tyrosine: Magnitude (x Veh level) [3]: 0.73 x Veh level | N-docosahexaenoyl phenylalanine: Direction (relative to Veh) [3]: ↓ | N-docosahexaenoyl phenylalanine: Magnitude (x Veh level) [3]: 0.77 x Veh level | N-linoleoyl ethanolamine: Direction (relative to Veh) [3]: ↓ | N-linoleoyl ethanolamine: Magnitude (x Veh level) [3]: 0.77 x Veh level | N-oleoyl GABA: Direction (relative to Veh) [3]: ↓ | N-oleoyl GABA: Magnitude (x Veh level) [3]: 0.76 x Veh level | N-oleoyl ethanolamine: Direction (relative to Veh) [3]: ↓ | N-oleoyl ethanolamine: Magnitude (x Veh level) [3]: 0.85 x Veh level | N-oleoyl phenylalanine: Direction (relative to Veh) [3]: ↑ | N-oleoyl phenylalanine: Magnitude (x Veh level) [3]: 1.26 x Veh level | N-palmitoyl leucine: Direction (relative to Veh) [3]: ↑ | N-palmitoyl leucine: Magnitude (x Veh level) [3]: 1.63 x Veh level | N-palmitoyl valine: Direction (relative to Veh) [3]: ↑ | N-palmitoyl valine: Magnitude (x Veh level) [3]: 1.49 x Veh level | Oleic acid: Direction (relative to Veh) [3]: ↓ | Oleic acid: Magnitude (x Veh level) [3]: 0.83 x Veh level | PGE2: Direction (relative to Veh) [3]: ↓ | PGE2: Magnitude (x Veh level) [3]: 0.68 x Veh level | PGF2α: Direction (relative to Veh) [3]: ↓ | PGF2α: Magnitude (x Veh level) [3]: 0.72 x Veh level | 2-arachidonoyl glycerol level, Mean [4]: 1.99E-10 | 2-linoleoyl glycerol level, Mean [4]: 1.45E-10 | 2-oleoyl glycerol level, Mean [4]: 1.49E-09 | 2-palmitoyl glycerol level, Mean [4]: 1.57E-09 | 6-ketoPGF1α level, Mean [4]: 6.52E-12 | 11-OH-THC level, Mean [4]: BDL | 11-nor-9-carboxyTHC level, Mean [4]: BDL | Arachidonic acid level, Mean [4]: 1.8E-10 | Cannabidiol level, Mean [4]: BDL | Linoleic acid level, Mean [4]: 1.87E-10 | N- stearoyl valine level, Mean [4]: 9.25E-14 | N-arachidonoyl GABA level, Mean [4]: 3.92E-12 | N-arachidonoyl dopamine level, Mean [4]: BDL | N-arachidonoyl ethanolamine level, Mean [4]: 2.25E-11 | N-arachidonoyl glycine level, Mean [4]: 1.1E-12
